# Assay results published in patent US20100285032A1, “ESTROGEN RECEPTOR-RELATED RECEPTOR GAMMA (ERR GAMMA) IN BONE AND CARTILAGE FORMATION AND METHODS AND COMPOSITIONS RELATING TO SAME” (priority 2007, published 2010).
# Columns and labels:
# ERRs = details: cited from earlier work
# ERRγ = target: T1, ERRγ (Homo sapiens, UniProt P62508); details: cited from earlier work
# T1 sequence (P62508 1-458): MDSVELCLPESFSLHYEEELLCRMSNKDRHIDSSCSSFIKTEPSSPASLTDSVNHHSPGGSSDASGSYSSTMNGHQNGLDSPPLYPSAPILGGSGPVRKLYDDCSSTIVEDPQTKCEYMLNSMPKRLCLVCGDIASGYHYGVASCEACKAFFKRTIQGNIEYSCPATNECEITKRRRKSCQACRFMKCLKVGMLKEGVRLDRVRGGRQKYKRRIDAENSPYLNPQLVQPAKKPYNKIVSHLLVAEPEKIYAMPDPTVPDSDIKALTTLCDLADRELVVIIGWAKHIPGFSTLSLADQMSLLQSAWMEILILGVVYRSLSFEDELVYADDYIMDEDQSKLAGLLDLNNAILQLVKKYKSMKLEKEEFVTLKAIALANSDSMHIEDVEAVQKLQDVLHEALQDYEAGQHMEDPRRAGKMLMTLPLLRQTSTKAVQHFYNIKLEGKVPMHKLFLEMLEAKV
# C5.18 cells = assay: Cartilage nodule formation in C5.18 cell cultures after oligonucleotide treatment; assay type: cell-based, rat; details: C5.18 cultures, treated during differentiation phase
# Method: (§1) Cells were isolated from 21-day-old fetal Wistar rat or neonatal mouse calvariae or were the chondrogenic C5.18 cell line and were grown for osteogenic or chondrogenic differentiation as described previously (Bonnelye et al., 2001; Bonnelye et al., 2007). Medium was replaced every second day and cells were cultured at 37° C. in a 5% CO2 humidified atmosphere for 15-20 days until mineralized bone nodules or cartilage nodules had formed in control cultures.
# (§2) Rat calvarial cells were plated into 24 well plates at 10^4 cells/well. Antisense oligonucleotide inhibition of ERRγ expression was accomplished with a 20-base phosphorothioate-modified oligonucleotide. Control dishes were treated with the complementary sense oligonucleotide or no oligonucleotide. Briefly, oligonucleotide concentrations that have been found previously not to be toxic (0.5 μM to 2 μM) were added directly to cells during the proliferation (day 1-5) or differentiation phase (day 5 (end of proliferation) to 11) in standard medium as above supplemented with 50 μg/ml ascorbic acid, 10 mM sodium β-glycerophosphate. Medium was changed every 2 days and fresh oligonucleotides were added at each change. At day 15, cultures were terminated and stained for alkaline phosphatase according to previous protocols (Bonnelye et al., 2001).
# rat calvaria (RC) cells = assay: Bone nodule formation in rat calvaria (RC) cell cultures after oligonucleotide treatment; assay type: cell-based
# Method: as §1, §2
# ERRα = target: T2, ERRα (Homo sapiens, UniProt P11474); details: yeast-based and mammalian transient transfection assays; cited from earlier work
# T2 construct: host or cells: yeast
# T2 sequence (P11474 1-423): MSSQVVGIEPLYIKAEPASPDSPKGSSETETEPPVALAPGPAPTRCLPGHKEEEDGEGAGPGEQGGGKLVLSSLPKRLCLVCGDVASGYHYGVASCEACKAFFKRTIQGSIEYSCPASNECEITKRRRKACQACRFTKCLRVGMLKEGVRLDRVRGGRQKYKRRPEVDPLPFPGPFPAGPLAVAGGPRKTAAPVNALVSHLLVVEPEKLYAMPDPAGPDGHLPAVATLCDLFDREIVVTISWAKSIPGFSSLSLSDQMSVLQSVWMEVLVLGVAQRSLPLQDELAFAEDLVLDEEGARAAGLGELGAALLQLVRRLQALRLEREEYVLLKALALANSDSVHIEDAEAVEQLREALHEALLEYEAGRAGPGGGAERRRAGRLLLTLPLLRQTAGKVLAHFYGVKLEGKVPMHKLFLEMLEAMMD
# PGC-1/ERRα = details: cited from earlier work
molecule,measurement,setting,value
O=c1c(-c2ccc(O)cc2)coc2cc(O)ccc12 [daidzein],activity on ERRs (agonist/antagonist),ERRs,agonists of ERRs
CC(C)c1ccc(/C=N/NC(=O)c2ccc(O)cc2)cc1 [GSK4716],activity on ERRγ (agonist/antagonist),ERRγ,agonists of ERRγ
"ggtGGTTGACGCTGTCCGTCagg (antisense GGTGGTTGACGCTGTCCGTCAGG; all phosphorothioate, sugars by position and methylation of C not given here) [antisense oligonucleotide]",cartilage nodule formation,C5.18 cells,tended to increase
same,bone nodule formation,"rat calvaria (RC) cells; RC cultures, treated during differentiation phase (day 5 to 11)",significantly increased
same,bone nodule formation,"rat calvaria (RC) cells; RC cultures, treated during proliferation phase (day 1-5)",significantly increased
same,bone nodule formation,"rat calvaria (RC) cells; rat calvaria osteoblastic cells, treatment phase not stated",increases bone nodule formation
CC1(C)C(C(Cl)Cl)C2(Cl)C(Cl)C(Cl)C1(Cl)C2(Cl)Cl (stereo not shown) [toxaphene],effect on constitutive activity of ERRα,ERRα,suppress the constitutive activity of ERRα
"O=c1cc(-c2ccc(O)c(O)c2)oc2ccc(O)cc12 [6,3′,4′-trihydroxyflavone]",activity on ERRs (agonist/antagonist),ERRs,agonists of ERRs
CN(C)CCOc1ccc(/C(=C(/CCCl)c2ccccc2)c2ccc(O)cc2)cc1 [4-hydroxytoremifene],activity on ERRγ (agonist/antagonist),ERRγ,antagonize ERRγ
4-hydroxytamoxifen,activity on ERRγ (agonist/antagonist),ERRγ,antagonize ERRγ
same,activity on ERRs (agonist/antagonist),ERRs,antagonists of ERRs
COc1ccc(-c2coc3cc(O)cc(O)c3c2=O)cc1 [biochanin A],activity on ERRs (agonist/antagonist),ERRs,agonists of ERRs
O=c1c(-c2ccc(O)cc2)coc2cc(O)cc(O)c12 [genistein],activity on ERRs (agonist/antagonist),ERRs,agonists of ERRs
COc1cc(/C=C(\C#N)C(=O)Nc2nnc(C(F)(F)F)s2)ccc1OCc1ccc(C(F)(F)F)cc1C(F)(F)F [XCT790],activity on PGC-1/ERRα dependent signaling,PGC-1/ERRα,inverse agonists
ClC1=C(Cl)C2(Cl)C3C(Cl)C(Cl)CC3C1(Cl)C2(Cl)Cl (stereo not shown) [chlordane],effect on constitutive activity of ERRα,ERRα,suppress the constitutive activity of ERRα
CC/C(=C(/CC)c1ccc(O)cc1)c1ccc(O)cc1 [diethylstilbestrol],activity on ERRs (agonist/antagonist),ERRs,antagonists of ERRs
